Legend:
[1] = molecular target: T1, Lck-activated c-raf (Lck/c-raf) (Homo sapiens, UniProt P04049); test: c-raf (raf-1) biochemical assay; conditions: in words
T1 construct: GST-c-raf (from amino acid 302 to amino acid 648) and Lck (full-length); made in house; host or cells: Sf9 insect cells (baculovirus, co-infected with Lck baculovirus)
Protocol: The c-raf biochemical assay was performed with a c-raf enzyme that was activated (phosphorylated) by Lck kinase. Lck-activated c-raf (Lck/c-raf) was produced in Sf9 insect cells by co-infecting cells with baculoviruses expressing, under the control of the polyhedrin promoter, GST-c-raf (from amino acid 302 to amino acid 648) and Lck (full-length). Both baculoviruses were used at the multiplicity of infection of 2.5 and the cells were harvested 48 h post infection.
MEK-1 protein was produced in Sf9 insect cells by infecting cells with the baculovirus expressing GST-MEK-1 (full-length) fusion protein at the multiplicity of infection of 5 and harvesting the cells 48 hours post infection. Similar purification procedure was used for GST-c-raf 302-648 and GST-MEK-1.
Transfected cells were suspended at 100 mg of wet cell biomass per mL in a buffer containing 10 mM sodium phosphate, 140 mM sodium chloride pH 7.3, 0.5% Triton X-100 and the protease inhibitor cocktail. […]
Test compounds were serially diluted in DMSO using three-fold dilutions to stock concentrations ranging typically from 50 μM to 20 nM (final concentrations in the assay range from 1 μM to 0.4 nM). […] The filters were dried in a microwave, soaked in scintillation fluid and read in a Wallac 1205 Betaplate Counter (Wallac Inc., Atlanta, Ga., U.S.A.). The results were expressed as percent inhibition.

mouse PDGFR = mouse PDGFR (Mus musculus, UniProt P05622); test: Murine PDGFR FRET biochemical assay; conditions: in words
Chain of mouse PDGFR (P05622 553-1098 limits assumed): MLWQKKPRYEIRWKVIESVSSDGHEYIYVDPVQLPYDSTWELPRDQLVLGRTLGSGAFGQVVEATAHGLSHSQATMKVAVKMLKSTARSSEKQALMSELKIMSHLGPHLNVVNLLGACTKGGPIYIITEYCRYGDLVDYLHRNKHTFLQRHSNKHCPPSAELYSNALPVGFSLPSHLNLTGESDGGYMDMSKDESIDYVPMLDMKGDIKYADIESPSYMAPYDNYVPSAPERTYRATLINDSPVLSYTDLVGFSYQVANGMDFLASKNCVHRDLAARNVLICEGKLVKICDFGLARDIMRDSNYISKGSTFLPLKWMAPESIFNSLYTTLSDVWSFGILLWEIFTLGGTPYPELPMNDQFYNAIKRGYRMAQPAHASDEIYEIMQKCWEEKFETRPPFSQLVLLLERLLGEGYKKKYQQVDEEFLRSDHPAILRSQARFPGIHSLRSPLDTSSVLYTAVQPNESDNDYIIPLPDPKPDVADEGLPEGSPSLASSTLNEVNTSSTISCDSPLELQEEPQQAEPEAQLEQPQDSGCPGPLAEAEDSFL
Protocol: This assay was formatted in a 96-well black plate (Costar 3915). The following reagents are used: Europium-labeled anti-phosphotyrosine antibody pY20 (Perand streptavidin-APC; poly GT-biotin from, and mouse PDGFR. The reaction conditions are as follows: 1 nM mouse PDGFR is combined with 20 μM ATP, 7 nM poly GT-biotin, 1 nM pY20 antibody, 5 nM streptavidin-APC, and 1% DMSO in assay buffer (50 mM HEPES pH 7.5, 10 mM MgCl2, 0.1 mM EDTA, 0.015% BRIJ 35, 0.1 mg/mL BSA, 0.1% mercaptoethanol). Reaction is initiated upon addition of enzyme. Final reaction volume in each well is 100 μL. After 90 minutes, the reaction is stopped by addition of 10 μL/well of 5 μM staurosporine. Plates are read at both 615 and 665 nm on a Perkin Elmer VictorV Multilabel counter at about 1 hour after the reaction is stopped. Signal is calculated as a ratio: (665 nm/615 nm)*10000 for each well.
For IC50 generation for both PDGFR and Flk-1, compounds were added prior to the enzyme initiation. A 50-fold stock plate was made with compounds serially diluted 1:3 in a 50% DMSO/50% dH2O solution. […] The data were expressed as percent inhibition: % inhibition=100−((Signal with inhibitor-background)/(Signal without inhibitor-background))*100

[2] = system: PDGFR-beta phosphorylation in aortic smooth muscle cells; test: pPDGFR-beta sandwich ELISA in AoSMC cells; type: cell-based; conditions: PDGF-BB stimulated
Protocol: 100K P3-P6 Aortic SMC were plated in each well of 12-well cluster in 1000 μL volume/well of SGM-2 using standard cell culture techniques. Next day, cells were rinsed with 1000 μL D-PBS once, then serum starved in 500 μL SBM (smooth muscle cell basal media) with 0.1% BSA overnight. Compounds were diluted at a dose range from (10 μM to 1 nM in 10-fold dilution steps in DMSO. Final DMSO concentration 0.1%). Remove old media by inversion into the sink quickly then add 100 μL of each dilution to corresponding well of cells for 1 h at 37° C. Cells were then stimulated with 10 ng/mL PDGF-BB ligand for 7 min at 37° C. The media is decanted and 150 μL of isotonic lysis buffer with protease inhibitor tablet (Complete; EDTA-free) and 0.2 mM Na vanadate is added. Cells are lysed for 15 min at 4° C. on shaker in cold room. […]
Table 2 illustrates the results of two cellular assays for raf kinase activity, which are (i) inhibition of pERK in MDA-MB231 cells, a mechanistic readout of raf kinase activity, and (ii) a proliferation assay of MDA-MB231 cells, a functional assay of raf kinase activity. In addition, Table 2 illustrates the results of PDGFR driven phosphorylation of PDGFR-beta in aortic smooth muscle cells, which is a mechanistic readout of PDGFR kinase inhibition.

[3] = system: basal pERK in MDA-MB-231 cells; test: Bio-Plex phospho-ERK1/2 immunoassay; type: cell-based, human
Protocol: A 96 well pERK immunoassay, using laser flow cytometry (Bio-Rad) platform has been established to measure inhibition of basal pERK in breast cancer cell line. MDA-MB-231 cells were plated at 50,000 cells per well in 96 well microtitre plates in complete growth media. For effects of test compounds on basal pERK1/2 inhibition, the next day after plating, MDA-MB-231 cells were transferred to DMEM with 0.1% BSA and incubated with test compounds diluted 1:3 to a final concentration of 3 μM to 12 nM in 0.1% DMSO. Cells were incubated with test compounds for 2 h, washed, and lysed in Bio-Plex whole cell lysis buffer A. Samples are diluted with buffer B 1:1 (v/v) and directly transferred to assay plate or frozen at −80 C. degrees until processed. 50 μL of diluted MDA-MB-231 cell lysates were incubated with about 2000 of 5 micron Bio-Plex beads conjugated with an anti-ERK1/2 antibody overnight on a shaker at room temperature. The next day, biotinylated phospho-ERK1/2 sandwich immunoassay was performed, beads are washed 3 times during each incubation and then 50 μL of PE-strepavidin was used as a developing reagent. The relative fluorescence units of pERK1/2 were detected by counting 25 beads with Bio-Plex flow cell (probe) at high sensitivity. The IC50 was calculated by taking untreated cells as maximum and no cells (beads only) as background using in an Excel spreadsheet based program.

T1 sequence (P04049 302-648): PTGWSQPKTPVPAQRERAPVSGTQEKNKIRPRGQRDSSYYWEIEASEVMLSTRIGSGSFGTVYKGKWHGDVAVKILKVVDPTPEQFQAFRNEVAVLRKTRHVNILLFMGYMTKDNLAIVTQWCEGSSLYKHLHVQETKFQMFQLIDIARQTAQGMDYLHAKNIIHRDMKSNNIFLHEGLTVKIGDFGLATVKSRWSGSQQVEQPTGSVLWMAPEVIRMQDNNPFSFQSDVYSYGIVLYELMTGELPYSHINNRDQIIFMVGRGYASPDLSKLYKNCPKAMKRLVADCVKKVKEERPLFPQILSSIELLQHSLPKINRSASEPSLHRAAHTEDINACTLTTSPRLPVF

For `CNC(=O)c1cc(Oc2ccc(NC(=O)Nc3ccc(Cl)c(C(F)(F)F)c3)c(F)c2)ccn1` [Example 1, 4{4-[3-(4-chloro-3-trifluoromethylphenyl)-ureido]-3-fluorophenoxy}-pyridine-2-carboxylic acid methylamide], the “inhibition of raf kinase” value [1] was “potent inhibition”, the “inhibition of PDGFR kinase” value (mouse PDGFR) was “significant inhibition” and the IC50 [2] was 43.6 nM. The IC50 ([3]; Homo sapiens, MDA-MB-231 cells, 2 h) was 22 nM and the “inhibition of basal pERK” value ([3]; in words) was “significant inhibition”.

From patent US20130183268A1, “DRUG COMBINATIONS WITH FLUORO-SUBSTITUTED OMEGA-CARBOXYARYL DIPHENYL UREA FOR THE TREATMENT AND PREVENTION OF DISEASES AND CONDITIONS” (BAYER HEALTHCARE LLC, priority 2010, published 2013)
